In brackets after ≈: the same amount, converted by molar mass.
Conditions: buffer; pH 7.4; 200.0 µM

| SMILES | solubility kinetic [µg/mL] |
| --- | --- |
| CCc1ccc(NC(=S)NCc2cccnc2)cc1 | 36.9 (≈ 136 µM) |
| Cc1c(Cl)cnc(NC(=O)COC(=O)[C@@H](NC(=O)c2ccco2)C(C)C)c1Cl | > 64.2 |
| COC(=O)CNC(=O)c1ccc(F)cc1 | 27.1 (≈ 128 µM) |
| Cc1cc(C(=O)NCc2ccco2)c2ccccc2n1 | > 39.9 |
| O=C(/C=C/c1ccccc1)NC(=O)c1ccccc1O | 1.4 (≈ 5.24 µM) |
| O=C(CN1C(=O)c2ccccc2S1(=O)=O)N1CCCCC1 | > 46.3 |
| O=S1(=O)CCC(NC(=S)Nc2ccccc2)C1 (stereo unspecified) | > 40.6 |
| Cc1ccc(CNC(=O)CN2C(=O)NC3(CCCC3)C2=O)cc1 | 43.6 (≈ 138 µM) |
| COc1ccc(C(=O)Nc2ccc3ccccc3n2)cc1OC | 0.7 (≈ 2.27 µM) |
| NS(=O)(=O)c1ccc(CCNC(=O)COC(=O)c2ccc([N+](=O)[O-])o2)cc1 | > 59.6 |
| CC(C(=O)N1CCN=C1c1ccccc1)N1C(=O)c2ccccc2C1=O (stereo unspecified) | > 52.1 |
| CC(C)Oc1ccc(C(=O)Nc2cccc3cccnc23)cc1 | 1.1 (≈ 3.59 µM) |
| COc1ccc2[nH]cc(C(=O)C(=O)N3CCCCC3)c2c1 | > 42.9 |
| O=C(CNC(=O)c1ccccc1Cl)c1ccccc1 | 37.6 (≈ 137 µM) |
| N#CC1=C(N)N(c2ccc(Cl)c(Cl)c2)C(=O)C1 | > 40.2 |
| Cc1cc(C)n2nc(SCC(=O)N3CC(C)CC(C)C3)nc2n1 (stereo unspecified) | > 50 |
| CCCNC(=O)C12CCC(C)(C(=O)O1)C2(C)C (stereo unspecified) | > 35.9 |
| C=CCN1C(=O)C2(OCCCO2)c2cc(CCCC)ccc21 | 4.5 (≈ 14.9 µM) |
| NC(=O)COC(=O)c1sc2cc(F)ccc2c1Cl | 6.3 (≈ 21.9 µM) |
| CC(NCCC1(C(C)C)CCOC(C)(C)C1)c1cccs1 (stereo unspecified) | > 46.4 |
| CCOC(=O)Cc1csc(NS(=O)(=O)c2ccc([N+](=O)[O-])cc2)n1 | > 55.7 |
| Cc1nccc(-c2ccc(-n3c(C)ccc3C)cc2)n1 | 33 (≈ 125 µM) |

| SMILES | solubility kinetic [µg/mL] |
| --- | --- |
| Cc1c(C(=O)NCc2ccccc2F)oc2ccccc12 | 1.5 (≈ 5.29 µM) |
| Cc1csc(SCC(=O)NCc2ccccc2)n1 | > 41.8 |
| COCc1c(C(=O)OCC(=O)NCc2ccco2)oc2ccccc12 | 48 (≈ 140 µM) |
| O=C(Cn1ccc([N+](=O)[O-])n1)Nc1nc2ccccc2s1 | > 45.5 |
| O=C(Nc1ccc(Cl)c(S(=O)(=O)N2CCOCC2)c1)c1cccs1 | 3.2 (≈ 8.27 µM) |
| Cc1c(-c2cccc(Cl)c2)nc2ccccc2c1C(=O)NC1CC1 | > 50.5 |
| CCCn1c(=S)[nH]c2cc(Cl)ccc21 | 32.3 (≈ 142 µM) |
| C[C@H](NC(=O)c1ccccc1)C(=O)N1CCN(Cc2ccc3c(c2)OCO3)CC1 | > 59.3 |
| CSc1nsc(SCC(=O)Nc2cccc(C(=O)O)c2)n1 | > 51.2 |
| CC(c1ccccc1)c1nnc(N)s1 (stereo unspecified) | > 30.8 |
| O=C(O)CCCc1ccc(N(CCCl)CCCl)cc1 | > 45.6 |
| CSc1nc(C)c(C(=O)C[n+]2ccc(C)cc2)cc1C#N.[Br-] | 50 |
| Nc1nc(C23CC4CC(CC(C4)C2)C3)[nH]c(=O)n1 | > 36.9 |
| Cc1[nH]c(=O)nc(SCc2cccc(Cl)c2)c1C#N | 12.2 (≈ 41.8 µM) |
| CN(C)CCOC(=O)CCCCCCCCC(=O)OCCN(C)C.Cl | > 62.6 |
| Cc1cc2cc(C#N)c(N3CCOCC3)nc2cc1Cl | 0.5 (≈ 1.74 µM) |
| OC(CNCc1ccc2c(c1)OCO2)COc1ccccc1 (stereo unspecified) | > 45.2 |
| Cc1cc(C(=O)CCC(=O)N2CCN(c3ccccc3)CC2)c(C)s1 | 46.5 (≈ 130 µM) |
| Cc1cc(C)nc(NC(=O)c2cccs2)n1 | > 35 |
| CCOC(=O)c1sc(=S)n(-c2ccc(OC)cc2)c1C | 18.1 (≈ 58.5 µM) |
| O=S(=O)(c1ccccc1)N(CC(O)CN1CCCC1)c1ccccc1 (stereo unspecified) | 50 (≈ 139 µM) |
| CC(Oc1ccc(F)cc1)C(O)CCN(C)C (stereo unspecified) | 25.8 (≈ 107 µM) |

| SMILES | solubility kinetic [µg/mL] |
| --- | --- |
| O=C1NC(=O)C(c2ccc(F)cc2)N1 (stereo unspecified) | > 29.1 |
| Cc1noc(C)c1C(=O)OCC(=O)NC1CCCCC1C (stereo unspecified) | > 44.2 |
| Cc1ccc(S(=O)(=O)N2CCN(C(=O)Cn3c(=O)oc4ccccc43)CC2)cc1 | 12.7 (≈ 30.6 µM) |
| O=C(Nc1nncs1)C1CC(=O)N(C2CCCC2)C1 (stereo unspecified) | > 42.1 |
| O=C(CSc1ccccc1)N1CCN(C(=O)c2ccco2)CC1 | > 49.6 |
| COC(=O)c1ccccc1NC(=O)Cn1cnc([N+](=O)[O-])c1 | > 45.6 |
| CN(C(=O)c1ccco1)c1nc(-c2ccc(Cl)cc2)cs1 | 0.9 (≈ 2.82 µM) |
| O=S(=O)(c1ccc(Cl)cc1)N1CCCC1c1cccnc1 (stereo unspecified) | > 48.4 |
| CN1CCCC(C(O)(c2ccccc2)c2ccccc2)C1 (stereo unspecified) | 40.8 (≈ 145 µM) |
| CC(=O)Oc1c(C(C)C)cc(N(C(C)=O)c2ccccc2)cc1C(C)C | 41.5 (≈ 117 µM) |
| NC(=O)Cn1nc(C(F)(F)F)c2c1CCCC2 | > 37.1 |
| COc1ccc(S(=O)(=O)Nc2cc3[nH]c(=O)oc3cc2C)cc1 | > 50.2 |
| S=C(Nc1ccc2[nH]ccc2c1)NC1CCCCC1 | 37 (≈ 135 µM) |
| Cc1ccc2nc(-c3ccc(O)c(O)c3)cn2c1.Cl | 22.7 |
| O=C(c1cn(Cc2ccccc2)c2ccccc12)C1CC1 | < 0.6 |
| COc1ccc(CCNC(=O)COC(=O)c2cnc(Cl)c(Cl)c2)cc1 | 5.4 (≈ 14.1 µM) |
| O=C(O)c1ccc(N=Nc2c(-c3ccccc3)[nH]oc2=O)cc1 | > 46.4 |
| Fc1ccc(Nc2nc3ccccc3s2)cc1 | 0.4 (≈ 1.64 µM) |
| CN(C)CCNC(=O)c1scc2c1CCCC2.Cl | > 43.3 |
| Cc1ccc2[nH]c(=O)c(CC(=O)O)c(-c3ccccc3)c2c1 | > 44 |
| CC(=O)CN1C(=O)NC(c2ccccc2)(c2ccccc2)C1=O | 33.9 (≈ 110 µM) |
| CC(C)(C)NC(=O)C(OC(=O)c1cccs1)c1ccc(F)cc1 (stereo unspecified) | 1.3 (≈ 3.88 µM) |

| SMILES | solubility kinetic [µg/mL] |
| --- | --- |
| Cc1ccc(S(=O)(=O)NCc2ccncc2)c(C)c1C | 34.7 (≈ 119 µM) |
| O=C(NCCOc1ccc(Cl)cc1)C(=O)NCC1CCCO1 (stereo unspecified) | 33.6 (≈ 103 µM) |
| COCCOc1ccc(C(F)(F)F)cc1NC(=O)CN1C(=O)NC2(CCCc3ccccc32)C1=O (stereo unspecified) | 16.8 (≈ 34.2 µM) |
| COc1cccc(NC(=O)CN2C(=O)NC(Cc3c[nH]c4ccccc34)C2=O)c1 (stereo unspecified) | 22 (≈ 56.1 µM) |
| C/C(=N\Nc1ccc2nncn2n1)c1cccs1 | > 38.7 |
| Cc1cc(NC(=O)C2CC2)ccc1NC(=O)c1cccs1 | 13.1 (≈ 43.6 µM) |
| COc1ccccc1C(=O)OCc1ccc2sc(C)nc2c1 | 3.1 (≈ 9.89 µM) |
| CN1C(=O)C2(OCCCO2)c2cc(Cl)ccc21 | > 38.1 |
| O=C(CNC(c1ccccc1)c1ccccc1)Nc1ccccc1F | < 0.4 |
| CC(C)OCCCNC(=O)Nc1cccc2ccccc12 | > 43 |
| Cc1cccc(Nc2nc(C)nc3c2oc2ccccc23)c1.Cl | 1.1 |
| Cc1cccc(OCC(=O)Nc2ccncc2)c1C | 37.8 (≈ 147 µM) |
| NC(=O)c1cc(S(=O)(=O)NCCc2ccccc2)cs1 | 40.3 (≈ 130 µM) |
| CCOc1ccc(C(=O)Nc2cccc3cccnc23)cc1 | 0.7 (≈ 2.39 µM) |
| CCC(C)c1ccc(NC(=O)Nc2cnccn2)cc1 (stereo unspecified) | 1.3 (≈ 4.81 µM) |
| CCN(CC(=O)NC1CC1)S(=O)(=O)c1ccccc1 | > 42.4 |
| CCOC(=O)Cc1csc(NC(=O)CN2C(=O)c3ccccc3C2=O)n1 | 54.3 (≈ 145 µM) |
| COc1ccc(CNC(=O)C(C)OC(=O)c2cccs2)cc1 (stereo unspecified) | 26.9 (≈ 84.2 µM) |
| COc1cccc(OC)c1C(=O)OCC(=O)N1CCC(Cc2ccccc2)CC1 | 5.2 (≈ 13.1 µM) |
| COc1ccc(CCNC(=O)c2csc3c2CCCC3)cc1OC | > 51.8 |
